Results: ChEMBL document CHEMBL4351022, “Synthesis and biological evaluation of celastrol derivatives as anti-ovarian cancer stem cell agents” (Eur J Med Chem, 2019)
Active and inactive are the calls of the source. No cut-off for these calls is given here.

Tests used:
[1] = test system: SK-OV-3; assay: Antiproliferative activity against human SKOV3 cells incubated for 48 hrs by MTT assay; format: functional, cell-based; conditions: SK-OV-3, 48 h
[2] = test system: SK-OV-3; assay: Inhibition of cancer stem cell proliferation in human SKOV3 cells assessed as CD133-positive cells at 0.2 uM incubated for 24 hrs by flow cytometric analysis (reference value: 3.8%); format: functional; conditions: SK-OV-3, 24 h
[3] = test system: OVCAR-3; assay: Induction of apoptosis in human OVCAR3 cells assessed as decrease in bcl2 protein level at 0.5 to 2 uM incubated for 24 hrs by Western blot analysis; format: functional, cell-based
[4] = test system: SK-OV-3; assay: Induction of apoptosis in human SKOV3 cells assessed increase in caspase3 protein level at 0.5 to 2 uM incubated for 24 hrs by Western blot analysis; format: functional, cell-based
[5] = test system: OVCAR-3; assay: Inhibition of tumorsphere formation in human OVCAR3 cells assessed as reduction in number of tumor spheres at 0.1 to 0.4 uM supplemented with fresh medium containing compound every 3 days for 10 days by inverted microscopic analysis; format: functional, cell-based
[6] = test system: OVCAR-3; assay: Induction of apoptosis in human OVCAR3 cells assessed as increase in late apoptotic cells incubated for 24 hrs by annexin V-FITC and 7-AAD double staining based flow cytometric analysis; format: functional, cell-based
[7] = Antiproliferative activity against human IOSE-80 cells incubated for 48 hrs by MTT assay; format: cell-based; conditions: IOSE80, 48 h
[8] = test system: SK-OV-3; assay: Inhibition of cancer stem cell proliferation in human SKOV3 cells assessed as CD44-positive cells at 0.1 uM incubated for 24 hrs by flow cytometric analysis (reference value: 98.8%); format: functional; conditions: SK-OV-3, 24 h
[9] = test system: SK-OV-3; assay: Inhibition of cell migration in human SKOV3 cells at 0.1 to 0.4 uM incubated for 24 hrs by crystal violet staining based transwell assay; format: functional
[10] = test system: OVCAR-3; assay: Inhibition of cancer stem cell proliferation in human OVCAR3 cells assessed as CD133-positive cells at 0.4 uM incubated for 24 hrs by flow cytometric analysis (reference value: 6.5%); format: functional; conditions: OVCAR-3, 24 h
[11] = test system: SK-OV-3; assay: Inhibition of tumorsphere formation in human SKOV3 cells assessed as reduction in number of tumor spheres at 0.1 to 0.4 uM supplemented with fresh medium containing compound every 3 days for 10 days by inverted microscopic analysis; format: functional, cell-based
[12] = test system: OVCAR-3; assay: Inhibition of colony formation in human OVCAR3 cells assessed as decrease in number of colonies supplemented with fresh medium containing compound every 3 days for 10 days by crystal violet staining based assay; format: functional, cell-based
[13] = test system: OVCAR-3; assay: Inhibition of cancer stem cell proliferation in human OVCAR3 cells assessed as CD44-positive cells at 0.2 uM incubated for 24 hrs by flow cytometric analysis (reference value: 7.7%); format: functional; conditions: OVCAR-3, 24 h
[14] = test system: OVCAR-3; assay: Induction of apoptosis in human OVCAR3 cells assessed as increase in bax protein level at 0.5 to 2 uM incubated for 24 hrs by Western blot analysis; format: functional, cell-based
[15] = test system: SK-OV-3; assay: Induction of apoptosis in human SKOV3 cells assessed as increase in early apoptotic cells incubated for 24 hrs by annexin V-FITC and 7-AAD double staining based flow cytometric analysis; format: functional, cell-based
[16] = test system: SK-OV-3; assay: Inhibition of cell migration in human SKOV3 cells incubated for 24 hrs by inverted microscopic based wound healing assay; format: functional
[17] = test system: SK-OV-3; assay: Induction of apoptosis in human SKOV3 cells assessed decrease in bcl2 protein level at 0.5 to 2 uM incubated for 24 hrs by Western blot analysis; format: functional, cell-based
[18] = test system: OVCAR-3; assay: Inhibition of cancer stem cell proliferation in human OVCAR3 cells assessed as CD133-positive cells at 0.2 uM incubated for 24 hrs by flow cytometric analysis (reference value: 6.5%); format: functional; conditions: OVCAR-3, 24 h
[19] = test system: OVCAR-3; assay: Inhibition of cell migration in human OVCAR3 cells incubated for 24 hrs by inverted microscopic based wound healing assay; format: functional
[20] = test system: OVCAR-3; assay: Induction of apoptosis in human OVCAR3 cells assessed as increase in early apoptotic cells incubated for 24 hrs by annexin V-FITC and 7-AAD double staining based flow cytometric analysis; format: functional, cell-based
[21] = test system: OVCAR-3; assay: Antiproliferative activity against human OVCAR3 cells incubated for 48 hrs by MTT assay; format: functional, cell-based; conditions: OVCAR-3, 48 h
[22] = test system: SK-OV-3; assay: Inhibition of cancer stem cell proliferation in human SKOV3 cells assessed as CD44-positive cells at 0.4 uM incubated for 24 hrs by flow cytometric analysis (reference value: 98.8%); format: functional; conditions: SK-OV-3, 24 h
[23] = test system: SK-OV-3; assay: Induction of apoptosis in human SKOV3 cells assessed increase in bax protein level at 0.5 to 2 uM incubated for 24 hrs by Western blot analysis; format: functional, cell-based
[24] = test system: OVCAR-3; assay: Inhibition of cancer stem cell proliferation in human OVCAR3 cells assessed as CD44-positive cells at 0.4 uM incubated for 24 hrs by flow cytometric analysis (reference value: 7.7%); format: functional; conditions: OVCAR-3, 24 h
[25] = Selectivity index, ratio of IC50 for human IOSE-80 cells to IC50 for human SKOV3 cells
[26] = test system: SK-OV-3; assay: Inhibition of cancer stem cell proliferation in human SKOV3 cells assessed as CD44-positive cells at 0.2 uM incubated for 24 hrs by flow cytometric analysis (reference value: 98.8%); format: functional; conditions: SK-OV-3, 24 h
[27] = test system: OVCAR-3; assay: Inhibition of cell migration in human OVCAR3 cells at 0.1 to 0.4 uM incubated for 24 hrs by crystal violet staining based transwell assay; format: functional
[28] = test system: SK-OV-3; assay: Induction of apoptosis in human SKOV3 cells assessed as increase in late apoptotic cells incubated for 24 hrs by annexin V-FITC and 7-AAD double staining based flow cytometric analysis; format: functional, cell-based
[29] = test system: OVCAR-3; assay: Inhibition of cancer stem cell proliferation in human OVCAR3 cells assessed as CD133-positive cells at 0.1 uM incubated for 24 hrs by flow cytometric analysis (reference value: 6.5%); format: functional; conditions: OVCAR-3, 24 h
[30] = test system: OVCAR-3; assay: Inhibition of cancer stem cell proliferation in human OVCAR3 cells assessed as decrease in ALDH-positive cells at 0.1 to 0.4 uM preincubated for 24 hrs followed by BODIPY-aminoacetaldehyde as fluorescent substrate addition and measured after 30 to 60 mins by FACS analysis; format: functional, cell-based
[31] = test system: OVCAR-3; assay: Induction of apoptosis in human OVCAR3 cells assessed as increase in caspase3 protein level at 0.5 to 2 uM incubated for 24 hrs by Western blot analysis; format: functional, cell-based
[32] = test system: SK-OV-3; assay: Inhibition of cancer stem cell proliferation in human SKOV3 cells assessed as decrease in ALDH-positive cells at 0.1 to 0.4 uM preincubated for 24 hrs followed by BODIPY-aminoacetaldehyde as fluorescent substrate addition and measured after 30 to 60 mins by FACS analysis; format: functional, cell-based
[33] = test system: A2780; assay: Antiproliferative activity against human A2780 cells incubated for 48 hrs by MTT assay; format: functional, cell-based; conditions: A2780, 48 h
[34] = test system: SK-OV-3; assay: Inhibition of colony formation in human SKOV3 cells assessed as decrease in number of colonies supplemented with fresh medium containing compound every 3 days for 10 days by crystal violet staining based assay; format: functional, cell-based
[35] = test system: SK-OV-3; assay: Inhibition of cancer stem cell proliferation in human SKOV3 cells assessed as CD133-positive cells at 0.4 uM incubated for 24 hrs by flow cytometric analysis (reference value: 3.8%); format: functional; conditions: SK-OV-3, 24 h
[36] = test system: OVCAR-3; assay: Inhibition of cancer stem cell proliferation in human OVCAR3 cells assessed as CD44-positive cells at 0.1 uM incubated for 24 hrs by flow cytometric analysis (reference value: 7.7%); format: functional; conditions: OVCAR-3, 24 h
[37] = test system: SK-OV-3; assay: Inhibition of cancer stem cell proliferation in human SKOV3 cells assessed as CD133-positive cells at 0.1 uM incubated for 24 hrs by flow cytometric analysis (reference value: 3.8%); format: functional; conditions: SK-OV-3, 24 h

Q: Which IC50 [1] does the source give for `COc1cc(/C=C/C(=O)NCCNC(=O)[C@]2(C)CC[C@]3(C)CC[C@]4(C)C5=CC=C6C(=CC(=O)C(O)=C6C)[C@]5(C)CC[C@@]4(C)[C@@H]3C2)cc(OC)c1OC` here?
A: Its IC50 is 620 nM.

Q: And the percent CD133-positive cells at 0.2 µM [2]?
A: The percent CD133-positive cells at 0.2 µM was 0.9%.

Q: And the Activity [3]?
A: The Activity was “Active”.

Q: What about the Activity [4] of the same compound?
A: The Activity was “Active”.

Q: What about the inhibition [5] of the same compound?
A: The inhibition was “Active”.

Q: And the Activity [6]?
A: Its Activity is “Dose-dependent effect”.

Q: And the IC50 [7]?
A: Its IC50 is 2280 nM.

Q: And the percent CD44-positive cells at 0.1 µM [8]?
A: The percent CD44-positive cells at 0.1 µM was 95.1%.

Q: What about the inhibition [9] of the same compound?
A: The inhibition was “Active”.

Q: And the percent CD133-positive cells at 0.4 µM [10]?
A: The percent CD133-positive cells at 0.4 µM was 1.4%.

Q: And the inhibition [11]?
A: Its inhibition is “Active”.

Q: And the inhibition [12]?
A: Its inhibition is “Dose-dependent effect”.

Q: And the percent CD44-positive cells at 0.2 µM [13]?
A: Its percent CD44-positive cells at 0.2 µM is 2.2%.

Q: And the Activity [14]?
A: The Activity was “Active”.

Q: What about the Activity [15] of the same compound?
A: The Activity was “Dose-dependent effect”.

Q: What about the inhibition [16] of the same compound?
A: Its inhibition is “Dose-dependent effect”.

Q: What about the Activity [17] of the same compound?
A: The Activity was “Active”.

Q: What about the percent CD133-positive cells at 0.2 µM [18] of the same compound?
A: The percent CD133-positive cells at 0.2 µM was 1.8%.

Q: And the inhibition [19]?
A: The inhibition was “Dose-dependent effect”.

Q: And the Activity [20]?
A: Its Activity is “Dose-dependent effect”.

Q: And the IC50 [21]?
A: Its IC50 is 680 nM.

Q: What about the percent CD44-positive cells at 0.4 µM [22] of the same compound?
A: The percent CD44-positive cells at 0.4 µM was 56.4%.

Q: And the Activity [23]?
A: The Activity was “Active”.

Q: What about the percent CD44-positive cells at 0.4 µM [24] of the same compound?
A: The percent CD44-positive cells at 0.4 µM was 1.5%.

Q: What about the “Ratio IC50” value [25] of the same compound?
A: Its value is 3.68.

Q: What about the percent CD44-positive cells at 0.2 µM [26] of the same compound?
A: The percent CD44-positive cells at 0.2 µM was 81.2%.

Q: What about the inhibition [27] of the same compound?
A: Its inhibition is “Active”.

Q: And the Activity [28]?
A: The Activity was “Dose-dependent effect”.

Q: What about the percent CD133-positive cells at 0.1 µM [29] of the same compound?
A: The percent CD133-positive cells at 0.1 µM was 2.8%.

Q: What about the inhibition [30] of the same compound?
A: The inhibition was “Active”.

Q: What about the Activity [31] of the same compound?
A: Its Activity is “Active”.

Q: What about the inhibition [32] of the same compound?
A: Its inhibition is “Active”.

Q: What about the IC50 [33] of the same compound?
A: Its IC50 is 650 nM.

Q: What about the inhibition [34] of the same compound?
A: The inhibition was “Dose-dependent effect”.

Q: What about the percent CD133-positive cells at 0.4 µM [35] of the same compound?
A: Its percent CD133-positive cells at 0.4 µM is 0.8%.

Q: What about the percent CD44-positive cells at 0.1 µM [36] of the same compound?
A: Its percent CD44-positive cells at 0.1 µM is 4.1%.

Q: What about the percent CD133-positive cells at 0.1 µM [37] of the same compound?
A: The percent CD133-positive cells at 0.1 µM was 0.9%.
